pEC50: −log10 of the molar value.
Molecular target: T1, JAK3 (Janus kinase 3) protein tyrosine kinase (Homo sapiens, UniProt P52333)
T1 sequence (P52333 1-1124): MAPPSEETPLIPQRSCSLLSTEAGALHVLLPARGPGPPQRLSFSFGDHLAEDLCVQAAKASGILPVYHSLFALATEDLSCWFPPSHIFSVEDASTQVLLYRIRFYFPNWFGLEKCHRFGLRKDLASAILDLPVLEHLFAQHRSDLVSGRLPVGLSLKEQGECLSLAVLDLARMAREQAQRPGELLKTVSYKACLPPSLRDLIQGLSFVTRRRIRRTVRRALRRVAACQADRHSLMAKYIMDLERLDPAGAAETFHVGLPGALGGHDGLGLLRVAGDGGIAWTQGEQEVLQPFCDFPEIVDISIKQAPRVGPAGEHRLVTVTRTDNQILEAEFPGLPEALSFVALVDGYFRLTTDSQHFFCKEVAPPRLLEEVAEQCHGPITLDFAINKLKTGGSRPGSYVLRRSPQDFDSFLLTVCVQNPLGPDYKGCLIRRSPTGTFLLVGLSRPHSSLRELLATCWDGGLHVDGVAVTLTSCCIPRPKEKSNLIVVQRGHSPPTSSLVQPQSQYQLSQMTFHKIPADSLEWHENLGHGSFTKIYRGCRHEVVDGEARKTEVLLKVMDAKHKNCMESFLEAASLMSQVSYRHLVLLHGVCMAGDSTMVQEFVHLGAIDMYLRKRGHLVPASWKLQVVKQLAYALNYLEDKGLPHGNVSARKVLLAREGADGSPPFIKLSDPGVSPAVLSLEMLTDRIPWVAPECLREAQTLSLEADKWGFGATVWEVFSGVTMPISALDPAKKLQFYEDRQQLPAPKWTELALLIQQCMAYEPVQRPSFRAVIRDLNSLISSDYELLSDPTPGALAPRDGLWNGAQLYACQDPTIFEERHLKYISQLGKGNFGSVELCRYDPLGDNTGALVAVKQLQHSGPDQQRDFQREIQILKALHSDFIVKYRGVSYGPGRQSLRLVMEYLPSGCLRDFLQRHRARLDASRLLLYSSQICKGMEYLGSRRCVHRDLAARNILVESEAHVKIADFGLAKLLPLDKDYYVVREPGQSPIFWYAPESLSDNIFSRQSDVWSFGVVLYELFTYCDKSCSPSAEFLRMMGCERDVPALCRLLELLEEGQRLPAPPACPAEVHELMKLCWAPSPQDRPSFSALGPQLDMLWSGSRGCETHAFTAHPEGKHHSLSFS
Assay: poly (Glu, Tyr) 4:1 ELISA, JAK3
Assay type: biochemical
Conditions: inhibitors solubilized in DMSO, read-out: ec-50 (effective concentration for 50% inhibition) of JAK3
Procedure: To further examine the inhibition characteristics of DBH (and its variants) to a variety of cellular components, a poly (Glu, Tyr) 4:1 ELISA was performed. Hymenialdisine (H), DBH (as marine sponge extracts: see Chipman and Faulkner, 1997), and three variant forms of synthetic DBH: the free base form of DBH (DBH-2FB), a trifluoroacetic acid salt form of DBH (DBH-2S), and a methanesulfonic acid salt form of DBH (DBH 1) were solubilized in DMSO, and tested for the ability to inhibit; ZAP-70 (ζ-associated polypeptide of 70 kDa) protein tyrosine kinase, BTK (Bruton's agarnrnaglobulinaemia tyrosine kinase), JAK3 (Janus kinase 3) protein tyrosine kinase, LCK (Lymphoid T-cell protein tyrosine kinase), and IGFR (Insulin-like growth factor receptor) protein tyrosine kinase.
Maxisorb microtiter plates (Nalge Nunc International, Rochester, N.Y.) were coated with 1 mg/ml Poly(Glu,Tyr) 4:1 (Sigma, St. Louis, Mo.) solubilized in phosphate buffered saline (PBS), 0.02% sodium azide. On the day of the assay, microtiter plates were washed 4× with TBS-Tween (25 mM Tris pH 8.0, 150 mM NaCl, 0.05% Tween 20) using a Skatron plate washer (Skatron Instruments, Sterling, Va.). 200 μl of sterile blocking buffer (3% BSA in PBS, 0.02% sodium azide) was added to each well, and the microtiter plates were incubated at 37° C. for 1 hour. The blocking buffer was removed, the plates washed, and various concentrations of inhibitor were added in a 20 μl volume to the wells. 60 μl of the appropriate substrate mix was then added. Substrate mixes were prepared as described in Table 2:
Following addition of the substrate mix, 20 μl of the test protein tyrosine kinase (in 1× assay buffer) was added. Kinase reactions were incubated 30 min at 37° C., followed by washes in the Skatron plate washer. 100 μl of biotinylated PT-66 anti-phosphotyrosine monoclonal antibody (Sigma, St. Louis, Mo.) (diluted 1:4000 in 0.5% BSA, sterile-filtered TBS) was added to each well, and incubated for an additional 30 minutes at 37° C. […] The samples were then read at 450 nm in a plate reader.

Row | pEC50 | SMILES
1 | 4.94 | NC1=NC(=O)C(=C2CCNC(=O)c3[nH]ccc32)N1 [DBH-2FB]
2 | 4.46 to 4.63 | NC1=NC(=O)C(=C2CCNC(=O)c3[nH]ccc32)N1 [DBH, 4-(2-amino-4-oxo-2-imidazolin-5-ylidene)-4,5,6,7-tetrahydropyrrolo(2,3-c) azepine-8-one]
